Tests used:
[1] = tested on: iPS cells; assay: Measurement of intracellular ROS (DCFH-DA staining, flow cytometer); type: cell-based, human; conditions: versus medium with no additive (100%)
Method: In each of the basal medium with no additive and the albumin-added medium, cells were dispersed into single-cells, and after 1 hours, for each case, cells were fluorescently stained with DCFH-DA, and fluorescence intensity was measured using a flow cytometer.
Cells were cultured in the control media or in the medium to which the respective component had been added, then dispersed into single-cells. For each case, cells were fluorescently stained with DCFH-DA, and the fluorescence intensity was measured using a flow cytometer.

[2] = tested on: Human iPS cell line 253G1; assay: Comparison of proliferating rate in media with each added component; type: cell-based; conditions: 7 days culture; NAC 8.2 mg and/or PVA 0.25 g per 100 mL basal medium; basal medium only = 1; n=3
Method: To 100 mL of the basal medium, either only 8.2 mg of N-acetyl-L-cysteine was added, only 0.25 g of polyvinyl alcohol was added, or 8.2 mg of N-acetyl-L-cysteine and 0.25 g of polyvinyl alcohol were added.
(§1) Human iPS cell line 253G1 was washed with PBS, then treated with an equivalent mixture solution of TrypLE Select (ThermoScientific) and 0.5 mM EDTA at 37° C. for 5 minutes to be dispersed into single-cells, and collected.
The culture was carried out in the basal medium with no additive prepared as a control, and in a medium to which only N-acetyl-L-cysteine was added, in a medium to which only polyvinyl alcohol was added, or in a medium to which N-acetyl-L-cysteine and polyvinyl alcohol were added (n=3).

[3] = tested on: Human iPS cell line 253G1; assay: Confirmation of cell morphology by phase-contrast microscopy; type: cell-based; conditions: third day of culturing; additive in basal medium (albumin 1 g/100 mL; NAC 8.2 mg/100 mL); spindle = good condition, globular = bad
Method: as §1
The morphology of cells on the third day of culturing in the basal medium with no additive and in the albumin-added medium was observed by phase-contrast microscopy.
The morphology of cells on the third day of culturing in the control medium and in the N-acetyl-L-cysteine-added medium as a representative of 5 types of antioxidants was observed by phase-contrast microscopy.

[4] = tested on: Human iPS cell line 253G1; assay: Confirming cell attachment (crystal violet staining); type: cell-based; conditions: 7 days culture; 0.25 g polymer or 1 g albumin per 100 mL basal medium; iMatrix-511 coated 6-well plate; n=3
Method: as §1
The culture was carried out in the basal medium with no additive and an albumin-added medium prepared as controls, and in a medium to which polyvinyl alcohol and in a medium to which polyvinylpyrrolidone was added (n=3).
Each of the cultured cell was stained with crystal violet and the adherence of the cells was confirmed under phase-contrast microscopy.

[5] = Example 1, antioxidant added to 100 mL basal medium (NAC 163 mg, GSH 307 mg)

Row | Molecule | decrease in intracellular ROS level [1, 5] | increase in relative proliferating rate [2] | cell morphology [3] | adherence of cells to culture container [4] | decrease in intracellular ROS level ([1]; Comparative Example 1, 1 g albumin per 100 mL basal medium, 1 hour after dispersion into single cells)
1 | CC(=O)N[C@@H](CS)C(=O)O [N-acetyl-L-cysteine] | approximately 50% | approximately 1.4 fold | spindle shape |  | 
2 | N[C@@H](CCC(=O)N[C@@H](CS)C(=O)NCC(=O)O)C(=O)O [reduced glutathione] | approximately 50% |  |  |  | 
3 | albumin |  |  | spindle shape | stained cells were confirmed all over the culture container | approximately 60%

— patent publication US20220017871A1, “UNDIFFERENTIATED STATE-MAINTAINING CULTURE MEDIUM FOR PLURIPOTENT STEM CELLS” (Kanto Kagaku Kabushiki Kaisha, priority 2018, published 2022)
